Test results published in publication PMC8445441, “Elucidating the mechanism by which synthetic helper peptides sensitize Pseudomonas aeruginosa to multiple antibiotics” (PLoS Pathogens, 2021).
Like-named read-outs stand apart in the source and are kept apart here. Values belong to the compound of their own block, whether it stands above or below them.

Experiments:
P. aeruginosa HM-214 = details: strain HM-214; antibiotic + D-11 (MICb/MICbc 128/4)
Summary of the method: (§1)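 Two-fold serial dilutions in MHB received an equal volume of bacteria (suspension about 1 × 10^6 CFU/mL). Plates were held 18 h at 37 °C, then read visually for growth. Triplicate, CLSI-based.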

[1] = tested on: clinical P. aeruginosa isolates; assay: microbe, parasite or virus in culture; details: Pseudomonas aeruginosa, 18 h, antibiotic alone
Summary of the method: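 Broth microdilution per CLSI in MHB, two-fold drug dilutions mixed with an equal volume of bacteria at about 1 × 10^6 CFU/mL. After 18 h at 37 °C, MIC taken as the lowest concentration with no visible growth; run in triplicate.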

P. aeruginosa ATCC27853 = assay: microbe, parasite or virus in culture; design: MICa: MIC of the antibiotic / MICac: MIC of the antibiotic in the combination: unit not given beside the values; details: strain ATCC27853; for FICI: antibiotic + D-11 (MICb/MICbc 32/4); for MICa: MIC of the antibiotic: antibiotic alone; for MICa: MIC of the antibiotic / MICac: MIC of the antibiotic in the combination: unit not given; for MICac: MIC of the antibiotic in the combination: with D-11 at MICbc 4
Summary of the method: as §1

P. aeruginosa PAK = assay: microbe, parasite or virus in culture; design: MICa: MIC of the antibiotic / MICac: MIC of the antibiotic in the combination: unit not given beside the values; details: strain PAK; for FICI: antibiotic + D-11 (MICb/MICbc 64/4); for MICa: MIC of the antibiotic: antibiotic alone; for MICa: MIC of the antibiotic / MICac: MIC of the antibiotic in the combination: unit not given; for MICac: MIC of the antibiotic in the combination: with D-11 at MICbc 4
Summary of the method: as §1

P. aeruginosa NR-31041 = assay: microbe, parasite or virus in culture; design: MICa: MIC of the antibiotic / MICac: MIC of the antibiotic in the combination: unit not given beside the values; details: strain NR-31041; for FICI: antibiotic + D-11 (MICb/MICbc 64/4); for MICa: MIC of the antibiotic: antibiotic alone; for MICa: MIC of the antibiotic / MICac: MIC of the antibiotic in the combination: unit not given; for MICac: MIC of the antibiotic in the combination: with D-11 at MICbc 4
Summary of the method: as §1

P. aeruginosa NR-31040 = assay: microbe, parasite or virus in culture; design: MICa: MIC of the antibiotic / MICac: MIC of the antibiotic in the combination: unit not given beside the values; details: for FICI: antibiotic + D-11 (MICb/MICbc 128/4); for MICac: MIC of the antibiotic in the combination: with D-11 at MICbc 4
Summary of the method: as §1

P. aeruginosa PA14 = assay: microbe, parasite or virus in culture; design: MICa: MIC of the antibiotic / MICac: MIC of the antibiotic in the combination: unit not given beside the values; details: strain PA14; for FICI: antibiotic + D-11 (MICb/MICbc 128/4); for MICa: MIC of the antibiotic: antibiotic alone; for MICa: MIC of the antibiotic / MICac: MIC of the antibiotic in the combination: unit not given; for MICac: MIC of the antibiotic in the combination: with D-11 at MICbc 4
Summary of the method: as §1

P. aeruginosa AUMC-Pa-2 = details: strain AUMC-Pa-2; antibiotic + D-11 (MICb/MICbc 64/4)
Summary of the method: as §1

P. aeruginosa AUMC-Pa-1 = details: strain AUMC-Pa-1; antibiotic + D-11 (MICb/MICbc 128/4)
Summary of the method: as §1

P. aeruginosa AUMC-Pa-6 = assay: microbe, parasite or virus in culture; details: strain AUMC-Pa-6; for FICI: antibiotic + D-11 (MICb/MICbc 64/4); for MICa: MIC of the antibiotic: antibiotic alone; for MICa: MIC of the antibiotic / MICac: MIC of the antibiotic in the combination: unit not given; for MICac: MIC of the antibiotic in the combination: with D-11 at MICbc 4
Summary of the method: as §1

P. aeruginosa AUMC-Pa-3 = assay: microbe, parasite or virus in culture; details: for FICI: antibiotic + D-11 (MICb/MICbc 128/4); for MICac: MIC of the antibiotic in the combination: with D-11 at MICbc 4
Summary of the method: as §1

P. aeruginosa PAO1 = assay: microbe, parasite or virus in culture; details: PAO1; for MIC: Pseudomonas aeruginosa, PAO1, 18 h, read-out: MICa: the MIC of antibiotics, S3 Table, antibiotic alone; for FICI / MICac: the MIC for the antibiotic in the combination: S3 Table
Summary of the method: as §1

P. aeruginosa AUMC-Pa-4 = assay: microbe, parasite or virus in culture; details: strain AUMC-Pa-4; for FICI: antibiotic + D-11 (MICb/MICbc 128/4); for MICa: MIC of the antibiotic: antibiotic alone; for MICa: MIC of the antibiotic / MICac: MIC of the antibiotic in the combination: unit not given; for MICac: MIC of the antibiotic in the combination: with D-11 at MICbc 4
Summary of the method: as §1

P. aeruginosa AUMC-Pa-5 = assay: microbe, parasite or virus in culture; details: for FICI: antibiotic + D-11 (MICb/MICbc 64/4); for MICac: MIC of the antibiotic in the combination: with D-11 at MICbc 4
Summary of the method: as §1

[2] = read-out: Antibiotic sensibility (MIC) of clinical P. aeruginosa isolate AUMC-Pa-1, strain AUMC-Pa-1
[3] = read-out: Antibiotic sensibility (MIC) of clinical P. aeruginosa isolate AUMC-Pa-2, strain AUMC-Pa-2
[4] = read-out: Antibiotic sensibility (MIC) of clinical P. aeruginosa isolate AUMC-Pa-3, strain AUMC-Pa-3
[5] = read-out: Antibiotic sensibility (MIC) of clinical P. aeruginosa isolate AUMC-Pa-4, strain AUMC-Pa-4
[6] = read-out: Antibiotic sensibility (MIC) of clinical P. aeruginosa isolate AUMC-Pa-5, strain AUMC-Pa-5
[7] = read-out: Antibiotic sensibility (MIC) of clinical P. aeruginosa isolate AUMC-Pa-6, strain AUMC-Pa-6
[8] = read-out: Antibiotic sensibility (MIC) of clinical P. aeruginosa isolate HM-214, strain HM-214
[9] = read-out: Antibiotic sensibility (MIC) of clinical P. aeruginosa isolate NR-31040, strain NR-31040
[10] = read-out: Antibiotic sensibility (MIC) of clinical P. aeruginosa isolate NR-31041, strain NR-31041
[11] = strain NR-31040, unit not given
[12] = strain AUMC-Pa-3, unit not given
[13] = strain AUMC-Pa-5, unit not given

SMILES: C[C@@H](O)[C@H]1C(=O)N2C(C(=O)O)=C(S[C@@H]3CN[C@H](C(=O)N(C)C)C3)[C@H](C)[C@H]12 [Meropenem]
FICI (P. aeruginosa HM-214): 1.031
MIC [1, 2]: 1 µM
MIC [1, 3]: 1 µM
MIC [1, 4]: 0.25 µM
MIC [1, 5]: 2 µM
MIC [1, 6]: 0.25 µM
MIC [1, 7]: 2 µM
MIC [1, 8]: 0.25 µM
MIC [1, 9]: 2 µM
MIC [1, 10]: 4 µM
FICI (P. aeruginosa ATCC27853): 1.125
MICa: MIC of the antibiotic (P. aeruginosa ATCC27853): 1/1
MICac: MIC of the antibiotic in the combination (P. aeruginosa ATCC27853): 1/1
FICI (P. aeruginosa PAK): 1.063
MICa: MIC of the antibiotic (P. aeruginosa PAK): 1/1
MICac: MIC of the antibiotic in the combination (P. aeruginosa PAK): 1/1
FICI (P. aeruginosa NR-31041): 0.563
MICa: MIC of the antibiotic (P. aeruginosa NR-31041): 4
MICac: MIC of the antibiotic in the combination (P. aeruginosa NR-31041): 2
FICI (P. aeruginosa NR-31040; strain NR-31040): 0.531
MICa: MIC of the antibiotic (P. aeruginosa NR-31040; strain NR-31040, antibiotic alone, unit not given): 2
MICac: MIC of the antibiotic in the combination (P. aeruginosa NR-31040; [11]): 1
FICI (P. aeruginosa PA14): 1.031
MICa: MIC of the antibiotic (P. aeruginosa PA14): 2/2
MICac: MIC of the antibiotic in the combination (P. aeruginosa PA14): 2/2
FICI (P. aeruginosa AUMC-Pa-2): 2.063
FICI (P. aeruginosa AUMC-Pa-1): 1.031
FICI (P. aeruginosa AUMC-Pa-6): 2.063
MICa: MIC of the antibiotic (P. aeruginosa AUMC-Pa-6): 2
MICac: MIC of the antibiotic in the combination (P. aeruginosa AUMC-Pa-6): 4
MIC (P. aeruginosa AUMC-Pa-3; Pseudomonas aeruginosa, AUMCPA3, 18 h, read-out: MICa: MIC of the antibiotic): 0.25 µM
FICI (P. aeruginosa AUMC-Pa-3; strain AUMC-Pa-3): 1.031
MICac: MIC of the antibiotic in the combination (P. aeruginosa AUMC-Pa-3; [12]): 0.25/0.25
MIC (P. aeruginosa PAO1): 2 µM
FICI (P. aeruginosa PAO1; antibiotic + 4 μM D-11): 0.375
MICac: the MIC for the antibiotic in the combination (P. aeruginosa PAO1; with 2 μM D-11): 1 µM
MICac: the MIC for the antibiotic in the combination (P. aeruginosa PAO1; with 4 μM D-11): 0.5 µM
FICI (P. aeruginosa AUMC-Pa-4): 1.031
MICa: MIC of the antibiotic (P. aeruginosa AUMC-Pa-4): 2/2
MICac: MIC of the antibiotic in the combination (P. aeruginosa AUMC-Pa-4): 2/2
MIC (P. aeruginosa AUMC-Pa-5; Pseudomonas aeruginosa, AUMCPA5, 18 h, read-out: MICa: MIC of the antibiotic): 0.25 µM
FICI (P. aeruginosa AUMC-Pa-5; strain AUMC-Pa-5): 2.063
MICac: MIC of the antibiotic in the combination (P. aeruginosa AUMC-Pa-5; [13]): 0.5

MIC [1, 2]: 32 µM
MIC [1, 3]: 8 µM
MIC [1, 4]: 16 µM
MIC [1, 5]: 16 µM
MIC [1, 6]: 16 µM
MIC [1, 7]: 16 µM
MIC [1, 8]: 16 µM
MIC [1, 9]: 16 µM
MIC [1, 10]: 16 µM
MICa: MIC of the antibiotic (P. aeruginosa ATCC27853): 16
MICac: MIC of the antibiotic in the combination (P. aeruginosa ATCC27853): 1
MICa: MIC of the antibiotic (P. aeruginosa PAK): 16
MICac: MIC of the antibiotic in the combination (P. aeruginosa PAK): 1
MICa: MIC of the antibiotic (P. aeruginosa NR-31041): 16
MICac: MIC of the antibiotic in the combination (P. aeruginosa NR-31041): 2
MIC (P. aeruginosa NR-31040; Pseudomonas aeruginosa, NR31040, 18 h, read-out: MICa: MIC of the antibiotic): 16 µM
MICac: MIC of the antibiotic in the combination (P. aeruginosa NR-31040; [11]): 0.5
MICa: MIC of the antibiotic (P. aeruginosa PA14): 16
MICac: MIC of the antibiotic in the combination (P. aeruginosa PA14): 2
MICa: MIC of the antibiotic (P. aeruginosa AUMC-Pa-6): 16
MICac: MIC of the antibiotic in the combination (P. aeruginosa AUMC-Pa-6): 4
MICa: MIC of the antibiotic (P. aeruginosa AUMC-Pa-3; strain AUMC-Pa-3, antibiotic alone, unit not given): 16
MICac: MIC of the antibiotic in the combination (P. aeruginosa AUMC-Pa-3; [12]): 2
MIC (P. aeruginosa PAO1): 16 µM
MICac: the MIC for the antibiotic in the combination (P. aeruginosa PAO1; with 2 μM D-11): 0.5 µM
MICac: the MIC for the antibiotic in the combination (P. aeruginosa PAO1; with 4 μM D-11): 0.25 µM
MICa: MIC of the antibiotic (P. aeruginosa AUMC-Pa-4): 16
MICac: MIC of the antibiotic in the combination (P. aeruginosa AUMC-Pa-4): 2
MICa: MIC of the antibiotic (P. aeruginosa AUMC-Pa-5; strain AUMC-Pa-5, antibiotic alone, unit not given): 16/16
MICac: MIC of the antibiotic in the combination (P. aeruginosa AUMC-Pa-5; [13]): 16/16
SMILES: CN(C)c1ccc(O)c2c1C[C@H]1C[C@H]3[C@H](N(C)C)C(O)=C(C(N)=O)C(=O)[C@@]3(O)C(O)=C1C2=O [Minocycline]
FICI (P. aeruginosa HM-214): 0.094
FICI (P. aeruginosa ATCC27853): 0.188
FICI (P. aeruginosa PAK): 0.125
FICI (P. aeruginosa NR-31041): 0.188
FICI (P. aeruginosa NR-31040; strain NR-31040): 0.063
FICI (P. aeruginosa PA14): 0.156
FICI (P. aeruginosa AUMC-Pa-2): 0.313
FICI (P. aeruginosa AUMC-Pa-1): 0.094
FICI (P. aeruginosa AUMC-Pa-6): 0.313
FICI (P. aeruginosa AUMC-Pa-3; strain AUMC-Pa-3): 0.156
FICI (P. aeruginosa PAO1; antibiotic + 2 μM D-11): 0.094
FICI (P. aeruginosa PAO1; antibiotic + 4 μM D-11): 0.141
FICI (P. aeruginosa AUMC-Pa-4): 0.156
FICI (P. aeruginosa AUMC-Pa-5; strain AUMC-Pa-5): 1.063
